# Tests used:
# [1] = target: GST-tagged K-Ras mutant / His-tagged hSOS1 (Homo sapiens, UniProt P01116); assay: HTRF assay, K-Ras mutant / SOS1 interaction; format: binding; conditions: compound nos. 102-196, general methodology of example 5; read-out: IC50 against mutant Kras
# Description: (§1) This assay can be also used to assess a selective inhibition of a mutant Ras protein relative to a wildtype, or relative to a different mutant Ras protein. For example, the equilibrium interaction of wildtype Kras or K-Ras mutant (e.g., wildtype or a mutant thereof including those mentioned in Example 6) with SOS1 (e.g., hSOS1) can be assessed as a proxy or an indication for a subject compound's ability to bind and inhibit Ras protein. HTRF assay detects from (i) a fluorescence resonance energy transfer (FRET) donor (e.g., antiGST-Europium) that is bound to GST-tagged K-Ras mutant to (ii) a FRET acceptor (e.g., anti-6His-XL665) bound to a His-tagged hSOS1.
# (§2) The assay buffer can contain ˜5 mM HEPES pH 7.4, ˜150 mM NaCl, ˜ 1 mM DTT, 0.05% BSA and 0.0025% (v/v) Igepal. A Ras working solution is prepared in an assay buffer containing typically a suitable amount of the protein construct (e.g., GST-tagged K-Ras mutant) and the FRET donor (e.g., antiGST-Eu(K) from Cisbio, France). A SOS1 working solution is prepared in an assay buffer containing suitable amount of the protein construct (e.g., His-hSOS1) and the FRET acceptor (e.g., anti-6His-XL665 from Cisbio, France). A suitable amount of the protein construct will depend on the range of activity or range of IC50 values being detected or under investigation. For detecting IC50 within a range of 500 nM, the protein constructs of the same range of molarity can be utilized.
# (§3) A fixed volume of DMSO with or without test compound is transferred into a 384-well plate. Ras working solution is added to all wells of the test plate. SOS1 working solution is added to all wells except for those that are subsequently filled the inhibitor control solution. Upon incubation for about 10 minutes or longer, the fluorescence is measured with a M1000Pro plate reader (Tecan) using HTRF detection (excitation 337 nm, emission 1: 620 nm, emission 2: 665 nm). Compounds are tested in duplicates at different concentrations (for example, 10 μM, 2.5 μM, 0.63 μM, 0.16 μM, 0.04 µM, 0.01 μM test compound). The ratiometric data (i.e., emission 2 divided by emission 1) is used to calculate IC50 values against Ras using GraphPad Prism (GraphPad software). Following this general procedure, samples were tested with or without a subject compound disclosed herein including compounds exemplified in Table 1 to assess their abilities to inhibit K-Ras signaling or their respective IC50 values against a given Ras protein (e.g., a given mutant K-Ras) of interest.
# wildtype Kras / hSOS1 = target: T1, wildtype Kras / hSOS1 (Homo sapiens, UniProt P01116); assay: HTRF assay, wildtype Kras / SOS1 interaction; format: binding; conditions: compound nos. 102-196, general methodology of example 5; read-out: IC50 against wildtype Kras
# T1 construct: made in house; host or cells: E. coli BL21 (DE3)
# Description: as §1, §2, §3
# Chain of GST-tagged K-Ras mutant / His-tagged hSOS1 (P01116 whole entry G12D, form open): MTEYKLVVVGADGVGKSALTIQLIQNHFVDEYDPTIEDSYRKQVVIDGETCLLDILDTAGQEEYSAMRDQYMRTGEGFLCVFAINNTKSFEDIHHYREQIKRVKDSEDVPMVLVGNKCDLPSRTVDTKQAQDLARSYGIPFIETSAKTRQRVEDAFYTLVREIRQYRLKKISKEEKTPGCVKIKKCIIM
# T1 sequence (P01116 1-188 isoform P01116-2): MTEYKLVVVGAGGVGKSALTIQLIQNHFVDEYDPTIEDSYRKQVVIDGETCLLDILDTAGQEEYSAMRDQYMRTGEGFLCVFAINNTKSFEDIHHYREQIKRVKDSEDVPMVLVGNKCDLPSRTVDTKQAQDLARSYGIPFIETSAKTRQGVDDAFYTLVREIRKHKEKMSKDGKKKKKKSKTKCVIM
SMILES,IC50 [1],IC50 (wildtype Kras / hSOS1)
"CN1CCC[C@H]1COc1nc(N2CCNCC(C)(C)C2)c2cc(Cl)c(-c3cccc4sc(N)nc34)c(F)c2n1 [Compound 118, 4-(6-chloro-4-(6,6-dimethyl-1,4-diazepan-1-yl)-8-fluoro-2-(((S)-1-methylpyrrolidin-2-yl)methoxy)quinazolin-7-yl)benzo[d]thiazol-2-amine]",> 500 nM,> 500 nM
"CN1CCC[C@H]1COc1nc(N2CCCC(F)(F)CC2)c2cc(Cl)c(-c3cccc4sc(N)nc34)c(F)c2n1 [Compound 119, 4-(6-chloro-4-(4,4-difluoro-azepan-1-yl)-8-fluoro-2-(((S)-1-methylpyrrolidin-2-yl)methoxy)quinazolin-7-yl)-benzo[d]thiazol-2-amine]",> 500 nM,< 500 nM
"Nc1nc2c(-c3c(Cl)cc4c(N5CCNCC(F)(F)C5)nc(OCC56CCCN5C[C@H](F)C6)nc4c3F)cccc2s1 (stereo partly drawn) [Compound 120, 4-(6-chloro-4-(6,6-difluoro-1,4-diazepan-1-yl)-8-fluoro-2-(((2R)-2-fluorotetrahydro-1H-pyrrolizin-7a(5H)-yl)-methoxy)quinazolin-7-yl)-benzo[d]thiazol-2-amine]",< 500 nM,< 500 nM
"CO[C@@H]1C[C@@H](COc2nc(N3CCNCC(F)(F)C3)c3cc(Cl)c(-c4cccc5sc(N)nc45)c(F)c3n2)N(C)C1 [Compound 121, 4-(6-chloro-4-(6,6-difluoro-1,4-diazepan-1-yl)-8-fluoro-2-(((2S,4R)-4-methoxy-1-methylpyrrolidin-2-yl)-methoxy)quinazolin-7-yl)-benzo[d]thiazol-2-amine]",< 500 nM,< 500 nM
"CN1CCC[C@H]1COc1nc(N2CCNCC(F)(F)C2)c2cc(Cl)c(-c3cccc4scnc34)c(F)c2n1 [Compound 122, 4-(6-chloro-4-(6,6-difluoro-1,4-diazepan-1-yl)-8-fluoro-2-(((S)-1-methylpyrrolidin-2-yl)methoxy)quinazolin-7-yl)benzo[d]thiazole]",> 500 nM,> 500 nM
"CN1CCN(c2nc(OC[C@@H]3CCCN3C)nc3c(F)c(-c4cccc5sc(N)nc45)c(Cl)cc23)CC(F)(F)C1 [Compound 123, 4-(6-chloro-4-(6,6-difluoro-4-methyl-1,4-diazepan-1-yl)-8-fluoro-2-(((S)-1-methyl-pyrrolidin-2-yl)methoxy)-quinazolin-7-yl)benzo[d]-thiazol-2-amine]",> 500 nM,> 500 nM
"CN1CCC[C@H]1COc1nc(N2CC3CCNC3C2)c2cc(Cl)c(-c3cccc4sc(N)nc34)c(F)c2n1 (stereo partly drawn) [Compound 124, 4-(6-chloro-8-fluoro-4-(hexahydropyrrolo[3,4-b]-pyrrol-5(1H)-yl)-2-(((S)-1-methylpyrrolidin-2-yl)meth-oxy)quinazolin-7-yl)benzo-[d]thiazol-2-amine]",> 500 nM,> 500 nM
"CN1CCC[C@H]1COc1nc(N2CCNCC(F)(F)C2)c2cc(C#N)c(-c3cccc4sc(N)nc34)c(F)c2n1 [Compound 125, 7-(2-aminobenzo[d]thiazol-4-yl)-4-(6,6-difluoro-1,4-diazepan-1-yl)-8-fluoro-2-(((S)-1-methylpyrrolidin-2-yl)methoxy)quinazoline-6-carbonitrile]",> 500 nM,> 500 nM

# Further lines, results first:
IC50 [1],IC50 (wildtype Kras / hSOS1),SMILES
> 500 nM,< 500 nM,"CO[C@H]1C[C@@H](COc2nc(N3CCNCC(F)(F)C3)c3cc(Cl)c(-c4cccc5sc(N)nc45)c(F)c3n2)N(C)C1 [Compound 126, 4-(6-chloro-4-(6,6-difluoro-1,4-diazepan-1-yl)-8-fluoro-2-(((2S,4S)-4-methoxy-1-methylpyrrolidin-2-yl)-methoxy)quinazolin-7-yl)-benzo[d]thiazol-2-amine]"
< 500 nM,< 500 nM,"CN1CCC[C@H]1COc1nc(N2CCCNCC(F)(F)C2)c2cc(Cl)c(-c3cccc4sc(N)nc34)c(F)c2n1 [Compound 127, 4-(6-chloro-4-(3,3-difluoro-1,5-diazocan-1-yl)-8-fluoro-2-(((S)-1-methylpyrrolidin-2-yl)methoxy)quinazolin-7-yl)benzo[d]thiazol-2-amine]"
> 500 nM,> 500 nM,"CN1CCC[C@H]1COc1nc(N2CCNCC3(CC3)C2)c2cc(Cl)c(-c3cccc4sc(N)nc34)c(F)c2n1 [Compound 128, 4-(6-chloro-8-fluoro-2-(((S)-1-methylpyrrolidin-2-yl)-methoxy)-4-(5,8-diazaspiro-[2.6]nonan-5-yl)quinazolin-7-yl)benzo[d]thiazol-2-amine]"
> 500 nM,< 500 nM,"Nc1nc2c(-c3c(Cl)cc4c(N5CCNCC(F)(F)C5)nc(OCCCN5CCOCC5)nc4c3F)cccc2s1 [Compound 129, 4-(6-chloro-4-(6,6-difluoro-1,4-diazepan-1-yl)-8-fluoro-2-(3-morpholinopropoxy)-quinazolin-7-yl)benzo[d]-thiazol-2-amine]"
> 500 nM,< 500 nM,"CN1C[C@@H](F)C[C@H]1COc1nc(N2CCNCC(F)(F)C2)c2cc(Cl)c(-c3cccc4sc(N)nc34)c(F)c2n1 [Compound 130, 4-(6-chloro-4-(6,6-difluoro-1,4-diazepan-1-yl)-8-fluoro-2-(((2S,4S)-4-fluoro-1-methylpyrrolidin-2-yl)meth-oxy)quinazolin-7-yl)benzo-[d]thiazol-2-amine]"
> 500 nM,> 500 nM,"Cn1cnnc1COc1nc(N2CCNCC(F)(F)C2)c2cc(Cl)c(-c3cccc4sc(N)nc34)c(F)c2n1 [Compound 131, 4-(6-chloro-4-(6,6-difluoro-1,4-diazepan-1-yl)-8-fluoro-2-((4-methyl-4H-1,2,4-triazol-3-yl)methoxy)quin-azolin-7-yl)benzo[d]thiazol-2-amine]"
> 500 nM,> 500 nM,"CN1CCC[C@H]1COc1nc(N2CCCC3(CNC3)C2)c2cc(Cl)c(-c3cccc4sc(N)nc34)c(F)c2n1 [Compound 132, 4-(6-chloro-8-fluoro-2-(((S)-1-methylpyrrolidin-2-yl)-methoxy)-4-(2,6-diazaspiro-[3.5]nonan-6-yl)quinazolin-7-yl)benzo[d]thiazol-2-amine]"
< 500 nM,< 500 nM,"Nc1nc2c(-c3c(Cl)cc4c(N5CCNCC(F)(F)C5)nc(OC[C@@]56CCCN5C[C@H](F)C6)nc4c3F)ccc(F)c2s1 [Compound 133, 4-(6-chloro-4-(6,6-difluoro-1,4-diazepan-1-yl)-8-fluoro-2-(((2R,7aS)-2-fluorotetrahydro-1H-pyrrolizin-7a(5H)-yl)methoxy)quinazolin-7-yl)-7-fluorobenzo[d]thiazol-2-amine]"
> 500 nM,< 500 nM,"CN1CCC(COc2nc(N3CCNCC(F)(F)C3)c3cc(Cl)c(-c4cccc5sc(N)nc45)c(F)c3n2)CC1 [Compound 134, 4-(6-chloro-4-(6,6-difluoro-1,4-diazepan-1-yl)-8-fluoro-2-((1-methylpiperidin-4-yl)-methoxy)quinazolin-7-yl)-benzo[d]thiazol-2-amine]"
> 500 nM,> 500 nM,"CN(C)C1CN(c2nc(N3CCNCC(F)(F)C3)c3cc(Cl)c(-c4cccc5sc(N)nc45)c(F)c3n2)C1 [Compound 135, 4-(6-chloro-4-(6,6-difluoro-1,4-diazepan-1-yl)-2-(3-(dimethylamino)azetidin-1-yl)-8-fluoroquinazolin-7-yl)-benzo[d]thiazol-2-amine]"
< 500 nM,< 500 nM,"CN1CCC[C@H]1COc1nc(N2CCSCC(F)(F)C2)c2cc(Cl)c(-c3cccc4sc(N)nc34)c(F)c2n1 [Compound 136, 4-(6-chloro-4-(6,6-difluoro-1,4-thiazepan-4-yl)-8-fluoro-2-(((S)-1-methylpyrrolidin-2-yl)methoxy)quinazolin-7-yl)benzo[d]thiazol-2-amine]"
> 500 nM,> 500 nM,"CN1CCC[C@H]1COc1nc(N2CC3CNC(C3)C2)c2cc(Cl)c(-c3cccc4sc(N)nc34)c(F)c2n1 (stereo partly drawn) [Compound 137, 4-(4-(3,6-diazabicyclo-[3.2.1]octan-3-yl)-6-chloro-8-fluoro-2-(((S)-1-methyl-pyrrolidin-2-yl)methoxy)-quinazolin-7-yl)benzo[d]-thiazol-2-amine]"

# Source: patent US20240254129A1, “HETEROCYCLIC COMPOUNDS AND USES THEREOF” (Kumquat Biosciences Inc., priority 2021, published 2024)
